# Several values for one entry are separate records, joined by “and”; a condition that tells them apart may be missing. Equal entries are not always repeated. Toxic doses and inconclusive results are not listed. Square brackets hold non-standard residues; d marks the D form. Peptide text beside a SMILES is read from it. * marks the point of attachment. ξ: configuration not given here. ξF = NC(Cc1ccccc1)C(=O)O; Bz = O=C(c1ccccc1)*
# Test system: P388 leukemia ip, CD2F1 mice, survival T/C
# Assay: NCI In Vivo Anticancer Drug Screen. Data for tumor model P388 Leukemia (intraperitoneal) in CD2F1 (CDF1) mice
# Settings: endpoint: median survival time, higher = longer survival
# In short: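 Mice carrying the transplanted tumor received test compound or vehicle. Survival was recorded in each group, and the value is the treated-group measurement divided by that of the vehicle-treated control group.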
# [1] = dose: 50.0 mg/kg/injection, schedule: Q01DX009 (ip), vehicle: saline
# [2] = dose: 100.0 mg/kg/injection, schedule: Q01DX009 (ip), vehicle: saline
# [3] = dose: 200.0 mg/kg/injection, schedule: Q01DX009 (ip), vehicle: saline
# [4] = dose: 50.0 mg/kg/injection, schedule: Q01DX009 (ip), vehicle: Klucel (hydroxypropylcellulose) (HPC)
# [5] = dose: 100.0 mg/kg/injection, schedule: Q01DX009 (ip), vehicle: Klucel (hydroxypropylcellulose) (HPC)
# [6] = dose: 200.0 mg/kg/injection, schedule: Q01DX009 (ip), vehicle: Klucel (hydroxypropylcellulose) (HPC)
# [7] = dose: 60.0 mg/kg/injection, schedule: Q01DX005 (ip), vehicle: saline with Tween-80
# [8] = dose: 50.0 mg/kg/injection, schedule: Q01DX005 (ip), vehicle: saline with Tween-80
# [9] = dose: 100.0 mg/kg/injection, schedule: Q01DX005 (ip), vehicle: saline with Tween-80
# [10] = dose: 25.0 mg/kg/injection, schedule: Q01DX009 (ip), vehicle: saline with Tween-80
# [11] = dose: 50.0 mg/kg/injection, schedule: Q01DX009 (ip), vehicle: saline with Tween-80
# [12] = dose: 100.0 mg/kg/injection, schedule: Q01DX009 (ip), vehicle: saline with Tween-80
# [13] = dose: 200.0 mg/kg/injection, schedule: Q01DX009 (ip), vehicle: saline with Tween-80
# [14] = dose: 50.0 mg/kg/injection, schedule: Q01DX005 (ip), vehicle: Klucel (hydroxypropylcellulose) (HPC)
# [15] = dose: 100.0 mg/kg/injection, schedule: Q01DX005 (ip), vehicle: Klucel (hydroxypropylcellulose) (HPC)
# [16] = dose: 60.0 mg/kg/injection, schedule: Q01DX005 (ip), vehicle: Klucel (hydroxypropylcellulose) (HPC)
# [17] = dose: 120.0 mg/kg/injection, schedule: Q01DX005 (ip), vehicle: Klucel (hydroxypropylcellulose) (HPC)
# [18] = dose: 240.0 mg/kg/injection, schedule: Q01DX005 (ip), vehicle: Klucel (hydroxypropylcellulose) (HPC)
# [19] = dose: 12.5 mg/kg/injection, schedule: Q01DX009 (ip), vehicle: Klucel (hydroxypropylcellulose) (HPC)
structure (smiles),measurement,setting,value
O=c1[nH]c(-c2ccccc2)nc2nc3ccc([N+](=O)[O-])cc3[n+]([O-])c12,T/C,[1],93 % of control
same,T/C,[2],92 % of control
same,T/C,[3],97 % of control
OC12CCC(c3ccccc3)(CC1)CC2,T/C,[4],104 % of control
same,T/C,[5],100 % of control
same,T/C,[6],100 % of control
COC1=Nc2ccccc2S(=O)(=O)C=C1,T/C,"dose: 15.0 mg/kg/injection, schedule: Q01DX005 (ip), vehicle: saline with Tween-80",101 % of control
same,T/C,"dose: 30.0 mg/kg/injection, schedule: Q01DX005 (ip), vehicle: saline with Tween-80",104 % of control
same,T/C,[7],116 % of control and 119 % of control
O=C(CNC(=O)c1ccccc1)NCC(=O)NC(Cc1ccccc1)C(=O)O (stereo not drawn) (Bz-Gly-Gly-[ξF]-OH),T/C,[8],96 % of control
same,T/C,[9],100 % of control
O=C(O)CCC(=O)C(Cc1ccccc1)NC(=O)c1ccccc1 (centres undefined),T/C,[8],94 % of control
same,T/C,[7],91 % of control
same,T/C,[9],89 % of control
same,T/C,"dose: 120.0 mg/kg/injection, schedule: Q01DX005 (ip), vehicle: saline with Tween-80",100 % of control
same,T/C,"dose: 200.0 mg/kg/injection, schedule: Q01DX005 (ip), vehicle: saline with Tween-80",100 % of control
same,T/C,"dose: 240.0 mg/kg/injection, schedule: Q01DX005 (ip), vehicle: saline with Tween-80",98 % of control
[CH3][Sn]([CH3])([CH3])[O][N+](=O)[O-],T/C,"dose: 0.37 mg/kg/injection, schedule: Q01DX009 (ip), vehicle: saline",111 % of control
same,T/C,"dose: 0.75 mg/kg/injection, schedule: Q01DX009 (ip), vehicle: saline",91 % of control
CN(C)C(=O)c1ccc([N+](=O)[O-])cc1,T/C,[10],119 % of control
same,T/C,[11],98 % of control
same,T/C,[12],96 % of control
same,T/C,[13],104 % of control
CCSCCCCSCC,T/C,[11],100 % of control
same,T/C,[12],109 % of control
same,T/C,[13],113 % of control
Oc1ccc(Nc2ccc3[nH]c4ccccc4c3c2)cc1,T/C,"dose: 25.0 mg/kg/injection, schedule: Q01DX005 (ip), vehicle: Klucel (hydroxypropylcellulose) (HPC)",101 % of control
same,T/C,[14],106 % of control
same,T/C,[15],104 % of control
CCCCS(=O)(=O)N/N=C/C(=O)O,T/C,"dose: 6.25 mg/kg/injection, schedule: Q01DX009 (ip), vehicle: water",119 % of control
same,T/C,"dose: 12.5 mg/kg/injection, schedule: Q01DX009 (ip), vehicle: water",124 % of control
same,T/C,"dose: 50.0 mg/kg/injection, schedule: Q01DX009 (ip), vehicle: water",162 % of control
same,T/C,"dose: 100.0 mg/kg/injection, schedule: Q01DX009 (ip), vehicle: water",173 % of control
COc1cc(-c2coc3cc(O)ccc3c2=O)c(O)c(OC)c1OC,T/C,"dose: 100.0 mg/kg/injection, schedule: Q01DX001 (ip), vehicle: Klucel (hydroxypropylcellulose) (HPC)",101 % of control
same,T/C,"dose: 200.0 mg/kg/injection, schedule: Q01DX001 (ip), vehicle: Klucel (hydroxypropylcellulose) (HPC)",101 % of control
same,T/C,"dose: 400.0 mg/kg/injection, schedule: Q01DX001 (ip), vehicle: Klucel (hydroxypropylcellulose) (HPC)",102 % of control
CCCCOc1ccc(Nc2c(C(=O)OCC)cnc3cc4c(cc23)OCO4)cc1,T/C,[16],97 % of control
same,T/C,[17],95 % of control
same,T/C,[18],97 % of control
CC(=O)OC1=CC2C(OC1=O)C1C=CC2(OC(C)=O)C(=O)O1 (centres undefined),T/C,[11],102 % of control
same,T/C,[12],104 % of control
same,T/C,[13],113 % of control
O=C1c2cccc3cccc(c23)C2C1N2C1CCCCC1 (centres undefined),T/C,"dose: 25.0 mg/kg/injection, schedule: Q01DX001 (ip), vehicle: saline sonified",95 % of control
same,T/C,"dose: 50.0 mg/kg/injection, schedule: Q01DX001 (ip), vehicle: saline sonified",104 % of control
same,T/C,"dose: 100.0 mg/kg/injection, schedule: Q01DX001 (ip), vehicle: saline sonified",86 % of control
[O-][n+]1c2ccccc2[n+]([O-])c2c(O)cccc21,T/C,"dose: 3.12 mg/kg/injection, schedule: Q01DX009 (ip), vehicle: distilled water + Tween-80",113 % of control
same,T/C,"dose: 6.25 mg/kg/injection, schedule: Q01DX009 (ip), vehicle: distilled water + Tween-80",114 % of control and 121 % of control
same,T/C,"dose: 12.5 mg/kg/injection, schedule: Q01DX009 (ip), vehicle: distilled water + Tween-80",121 % of control
same,T/C,"dose: 25.0 mg/kg/injection, schedule: Q01DX009 (ip), vehicle: distilled water + Tween-80",119 % of control and 122 % of control
CCSc1ncnc2c1ncn2C1OC(CO)C(O)C1O (centres undefined),T/C,"dose: 100.0 mg/kg/injection, schedule: Q04DX003 (ip), vehicle: saline with Tween-80",104 % of control
same,T/C,"dose: 200.0 mg/kg/injection, schedule: Q04DX003 (ip), vehicle: saline with Tween-80",109 % of control
O=c1c(CO)c(-c2ccccc2)sc2ccccc12,T/C,[16],96 % of control
same,T/C,[17],97 % of control
same,T/C,[18],95 % of control
O=C(O)CSC(CC(=O)O)C(=O)O (centres undefined),T/C,"dose: 25.0 mg/kg/injection, schedule: Q01DX009 (ip), vehicle: saline",97 % of control
same,T/C,[1],96 % of control
same,T/C,[2],100 % of control
same,T/C,[3],88 % of control
Cc1nc2ccccc2c(=O)o1,T/C,[4],97 % of control
same,T/C,[5],98 % of control
same,T/C,"dose: 100.0 mg/kg/injection, schedule: Q04DX002 (ip), vehicle: Klucel (hydroxypropylcellulose) (HPC)",105 % of control
same,T/C,[6],90 % of control
same,T/C,"dose: 200.0 mg/kg/injection, schedule: Q04DX002 (ip), vehicle: Klucel (hydroxypropylcellulose) (HPC)",107 % of control
same,T/C,"dose: 400.0 mg/kg/injection, schedule: Q04DX002 (ip), vehicle: Klucel (hydroxypropylcellulose) (HPC)",100 % of control
CN(C)C(=O)c1ccccc1SC(=S)NCc1ccccc1,T/C,[16],102 % of control
same,T/C,[17],102 % of control
same,T/C,[18],102 % of control
O=C(/C=C/c1ccccc1)CC1=NC2NN(c3ccccc3)C(=O)C2=C1CC(=O)/C=C/c1ccccc1 (centres undefined),T/C,"dose: 60.0 mg/kg/injection, schedule: Q01DX005 (ip), vehicle: suspension in saline",95 % of control
same,T/C,"dose: 120.0 mg/kg/injection, schedule: Q01DX005 (ip), vehicle: suspension in saline",99 % of control
same,T/C,"dose: 240.0 mg/kg/injection, schedule: Q01DX005 (ip), vehicle: suspension in saline",107 % of control
O=S1(=O)C(c2cccc(F)c2)=C(O)c2cc3ccccc3nc21,T/C,[11],104 % of control
same,T/C,[12],97 % of control
same,T/C,[13],104 % of control
C(#CC12CC3CC(CC(C3)C1)C2)C12CC3CC(CC(C3)C1)C2,T/C,[14],98 % of control
same,T/C,[15],92 % of control
same,T/C,"dose: 200.0 mg/kg/injection, schedule: Q01DX005 (ip), vehicle: Klucel (hydroxypropylcellulose) (HPC)",91 % of control
N#C/C1=C(\C#N)CCC2(C#N)C3C=CC(O3)C2(C#N)CC1 (centres undefined),T/C,"dose: 3.12 mg/kg/injection, schedule: Q01DX009 (ip), vehicle: Klucel (hydroxypropylcellulose) (HPC)",103 % of control
same,T/C,"dose: 6.25 mg/kg/injection, schedule: Q01DX009 (ip), vehicle: Klucel (hydroxypropylcellulose) (HPC)",100 % of control
same,T/C,[19],100 % of control
Cc1ccc(S(=O)(=O)OCCOc2ccc3ccccc3c2-c2c(OCCOc3ccc4ccccc4c3-c3c(OCCOS(=O)(=O)c4ccc(C)cc4)ccc4ccccc34)ccc3ccccc23)cc1,T/C,"dose: 100.0 mg/kg/injection, schedule: Q01DX001 (ip), vehicle: saline with Tween-80",101 % of control
same,T/C,"dose: 200.0 mg/kg/injection, schedule: Q01DX001 (ip), vehicle: saline with Tween-80",97 % of control
same,T/C,"dose: 400.0 mg/kg/injection, schedule: Q01DX001 (ip), vehicle: saline with Tween-80",97 % of control
CN(C)c1ccc(/C=C/c2ccnc3cc(Cl)ccc23)cc1,T/C,"dose: 12.5 mg/kg/injection, schedule: Q01DX009 (ip), vehicle: saline with Tween-80",106 % of control
same,T/C,[10],116 % of control
same,T/C,[11],119 % of control
CCCCCCCCCSc1nc2ccc(N=Cc3ccccc3O)cc2s1,T/C,[19],100 % of control
same,T/C,"dose: 25.0 mg/kg/injection, schedule: Q01DX009 (ip), vehicle: Klucel (hydroxypropylcellulose) (HPC)",100 % of control
same,T/C,[4],91 % of control and 92 % of control
same,T/C,[6],90 % of control
